Source: patent publication US11986532B2 (Arvinas Operations, Inc., priority 2021, dated 2024)
Like-named read-outs stand apart in the source and are kept apart here.

Target: T1, BCL6 (Homo sapiens, UniProt P41182)
T1 construct: endogenous in cells; host or cells: T47D breast cancer epithelial cells
Experiment: Immunofluorescence protocol for high content imaging of BCL6 (degradation) in T47D cells, 3 days compound treatment
Type: cell-based
Conditions: for DC50: read-out: Mean DC50 (nM)* category; for Dmax: read-out: Mean Dmax (%)** category
How it was run: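 For degradation, compound series (3-fold, 11 points, top 0.1 or 1 μM final) were added to adherent T47D cultures for 3 days. BCL6 immunostaining used a rabbit antibody at 1:300 and an Alexa-488 secondary, with imaging at 10× magnification.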

[1] = T47D cells, 3 days compound treatment

| DC50 [1] [nM] | Dmax [1] [%] | SMILES | Dmax (T47D) [%] | DC50 [nM] | Mean Dmax (%)** category |
| --- | --- | --- | --- | --- | --- |
| < 10 | 50 to 70 | CNC(=O)COc1cc2cc(Nc3nc(N4CCC(CN5CCC6(CC5)CN(c5ccc7c(c5F)CN(C5CCC(=O)NC5=O)C7=O)C6)CC4)ncc3Cl)ccc2n(C(C)C)c1=O (stereo not shown) [Compound 71, 2-{[6-({5-chloro-2-[4-({2-[2-(2,6-dioxopiperidin-3-yl)-4-fluoro-1-oxo-2,3-dihydro-1H-isoindol-5-yl]-2,7-diazaspiro[3.5]nonan-7-yl}methyl)piperidin-1-yl]pyrimidin-4-yl}amino)-2-oxo-1-(propan-2-yl)-1,2-dihydroquinolin-3-yl]oxy}-N-methylacetamide] |  |  |  |
|  |  | CNC(=O)COc1cc2cc(Nc3nc(N4CCC(O[C@H]5C[C@H](N6[C@H](C)CN(c7ccc8c(c7)CN(C7CCC(=O)NC7=O)C8=O)C[C@H]6C)C5)CC4)ncc3Cl)ccc2n(C(C)C)c1=O (stereo partly drawn) [Compound 250, 2-({6-[(5-chloro-2-{4-[(1r,3r)-3-[(2R,6R)-4-[2-(2,6-dioxopiperidin-3-yl)-1-oxo-2,3-dihydro-1H-isoindol-5-yl]-2,6-dimethylpiperazin-1-yl]cyclobutoxy]piperidin-1-yl}pyrimidin-4-yl)amino]-2-oxo-1-(propan-2-yl)-1,2-dihydroquinolin-3-yl}oxy)-N-methylacetamide] | 50 to 70 | < 10 |  |
| < 10 | ≥ 70 | CNC(=O)COc1cc2c(F)c(Nc3nc(N4CCC(CN5CCC6(CN(c7ccc8c(c7)CN(C7CCC(=O)NC7=O)C8=O)C6)C(F)(F)C5)CC4)ncc3Cl)ccc2n(C(C)C)c1=O (stereo not shown) [Compound 171, 2-{[6-({5-chloro-2-[4-({2-[2-(2,6-dioxopiperidin-3-yl)-1-oxo-2,3-dihydro-1H-isoindol-5-yl]-5,5-difluoro-2,7-diazaspiro[3.5]nonan-7-yl}methyl)piperidin-1-yl]pyrimidin-4-yl}amino)-5-fluoro-2-oxo-1-(propan-2-yl)-1,2-dihydroquinolin-3-yl]oxy}-N-methylacetamide] |  |  |  |
|  |  | CNC(=O)COc1cc2cc(Nc3nc(N4CCC(O[C@H]5C[C@H](N6CCN(c7ccc8c(c7)C(=O)N(C7CCC(=O)NC7=O)C8=O)[C@@H](C)C6)C5)CC4)ncc3Cl)ccc2n(C(C)C)c1=O (stereo partly drawn) [Compound 391, 2-({6-[(5-chloro-2-{4-[(1r,3r)-3-[(3S)-4-[2-(2,6-dioxopiperidin-3-yl)-1,3-dioxo-2,3-dihydro-1H-isoindol-5-yl]-3-methylpiperazin-1-yl]cyclobutoxy]piperidin-1-yl}pyrimidin-4-yl)amino]-2-oxo-1-(propan-2-yl)-1,2-dihydroquinolin-3-yl}oxy)-N-methylacetamide] | ≥ 70 | < 10 |  |
| < 10 | 50 to 70 | CNC(=O)COc1cc2cc(Nc3nc(N4CCC(O[C@H]5CC[C@H](N(C)C6CN(c7ccc8c(c7)C(=O)N(C7CCC(=O)NC7=O)C8=O)C6)CC5)CC4)ncc3Cl)ccc2n(C(C)C)c1=O (stereo partly shown) [Compound 107, 2-[(6-{[5-chloro-2-(4-{[(1r,4r)-4-({1-[2-(2,6-dioxopiperidin-3-yl)-1,3-dioxo-2,3-dihydro-1H-isoindol-5-yl]azetidin-3-yl}(methyl)amino)cyclohexyl]oxy}piperidin-1-yl)pyrimidin-4-yl]amino}-2-oxo-1-(propan-2-yl)-1,2-dihydroquinolin-3-yl)oxy]-N-methylacetamide] |  |  |  |
|  |  | CNC(=O)COc1cc2cc(Nc3nc(N4CCC(O[C@H]5C[C@H](N6CC7(CN(c8ccc9c(c8)CN(C8CCC(=O)NC8=O)C9=O)C7)C6)C5)CC4)ncc3Cl)ccc2n(C(C)C)c1=O (stereo partly shown) [Compound 353, 2-({6-[(5-chloro-2-{4-[(1r,3r)-3-{6-[2-(2,6-dioxopiperidin-3-yl)-1-oxo-2,3-dihydro-1H-isoindol-5-yl]-2,6-diazaspiro [3.3]heptan-2-yl}cyclobutoxy]piperidin-1-yl}pyrimidin-4-yl)amino]-2-oxo-1-(propan-2-yl)-1,2-dihydroquinolin-3-yl}oxy)-N-methylacetamide] | ≥ 70 | < 10 |  |
| < 10 | 50 to 70 | CNC(=O)COc1cc2cc(Nc3nc(N4CCC(CN5CCC6(CC5)CN(c5cc(F)c7c(c5)CN(C5CCC(=O)NC5=O)C7=O)C6)CC4)ncc3Cl)ccc2n(C(C)C)c1=O (stereo not shown) [Compound 80, 2-{[6-({5-chloro-2-[4-({2-[2-(2,6-dioxopiperidin-3-yl)-7-fluoro-1-oxo-2,3-dihydro-1H-isoindol-5-yl]-2,7-diazaspiro[3.5]nonan-7-yl}methyl)piperidin-1-yl]pyrimidin-4-yl}amino)-2-oxo-1-(propan-2-yl)-1,2-dihydroquinolin-3-yl]oxy}-N-methylacetamide] |  |  |  |
|  |  | CNC(=O)COc1cc2cc(Nc3nc(N4CCC(O[C@H]5C[C@H](N6CC7(CCN(c8ccc9c(c8)C(=O)N(C8CCC(=O)NC8=O)C9=O)C7)C6)C5)CC4)ncc3Cl)ccc2n(C(C)C)c1=O (stereo partly shown) [Compound 350, 2-({6-[(5-chloro-2-{4-[(1r,3r)-3-{6-[2-(2,6-dioxopiperidin-3-yl)-1,3-dioxo-2,3-dihydro-1H-isoindol-5-yl]-2,6-diazaspiro [3.4]octan-2-yl}cyclobutoxy]piperidin-1-yl}pyrimidin-4-yl)amino]-2-oxo-1-(propan-2-yl)-1,2-dihydroquinolin-3-yl}oxy)-N-methylacetamide] | ≥ 70 | < 10 |  |
|  |  | CNC(=O)COc1cc2cc(Nc3nc(N4CCC(O[C@H]5C[C@H](N6CCC7(CCN(c8ccc9c(c8)CN(C8CCC(=O)NC8=O)C9=O)CC7)C6)C5)CC4)ncc3Cl)ccc2n(C(C)C)c1=O (stereo partly shown) [Compound 363, 2-({6-[(5-chloro-2-{4-[(1r,3r)-3-{8-[2-(2,6-dioxopiperidin-3-yl)-1-oxo-2,3-dihydro-1H-isoindol-5-yl]-2,8-diazaspiro[4.5]decan-2-yl}cyclobutoxy]piperidin-1-yl}pyrimidin-4-yl)amino]-2-oxo-1-(propan-2-yl)-1,2-dihydroquinolin-3-yl}oxy)-N-methylacetamide] |  | < 10 | A (A >= 70) |
|  |  | CNC(=O)COc1cc2cc(Nc3nc(N4CCC(O[C@H]5C[C@H](N6CCN(c7cc8c(cc7Cl)C(=O)N([C@H]7CCC(=O)NC7=O)C8)[C@H](C)C6)C5)CC4)ncc3Cl)ccc2n(C(C)C)c1=O [Compound 269, 2-({6-[(5-chloro-2-{4-[(1r,3r)-3-[(3R)-4-{6-chloro-2-[(3S)-2,6-dioxopiperidin-3-yl]-1-oxo-2,3-dihydro-1H-isoindol-5-yl}-3-methylpiperazin-1-yl]cyclobutoxy]piperidin-1-yl}pyrimidin-4-yl)amino]-2-oxo-1-(propan-2-yl)-1,2-dihydroquinolin-3-yl}oxy)-N-methylacetamide] | ≥ 70 | < 10 |  |

| SMILES | DC50 [1] [nM] | Dmax [1] [%] | Dmax (T47D) [%] | DC50 [nM] | Mean Dmax (%)** category |
| --- | --- | --- | --- | --- | --- |
| CNC(=O)COc1cc2cc(Nc3nc(N4CCC(O[C@H]5C[C@H](N6CCC(c7ccc8c(c7C)C(=O)N(C7CCC(=O)NC7=O)C8=O)CC6)C5)CC4)ncc3Cl)ccc2n(C(C)C)c1=O (stereo partly shown) [Compound 167, 2-({6-[(5-chloro-2-{4-[(1r,3r)-3-{4-[2-(2,6-dioxopiperidin-3-yl)-4-methyl-1,3-dioxo-2,3-dihydro-1H-isoindol-5-yl]piperidin-1-yl}cyclobutoxy]piperidin-1-yl}pyrimidin-4-yl)amino]-2-oxo-1-(propan-2-yl)-1,2-dihydroquinolin-3-yl}oxy)-N-methylacetamide] | < 10 | ≥ 70 |  |  |  |
